The results in this text go back to PubChem BioAssay AID721 (PCMD, 2007).

Activity calls are given as the source filed them. How the calls were made is not given here.

The assay concerns the target Coagulation factor XI (Homo sapiens) (UniProt P03951). Description: FXIa inhibitor IC50 values, dose response, biochemical, hits from single-well screen (AID 721). As to conditions: purified factor XIa enzymatic assay, fluorescence.

Coagulation factor XI (Homo sapiens), sequence (P03951 19-387 limits assumed): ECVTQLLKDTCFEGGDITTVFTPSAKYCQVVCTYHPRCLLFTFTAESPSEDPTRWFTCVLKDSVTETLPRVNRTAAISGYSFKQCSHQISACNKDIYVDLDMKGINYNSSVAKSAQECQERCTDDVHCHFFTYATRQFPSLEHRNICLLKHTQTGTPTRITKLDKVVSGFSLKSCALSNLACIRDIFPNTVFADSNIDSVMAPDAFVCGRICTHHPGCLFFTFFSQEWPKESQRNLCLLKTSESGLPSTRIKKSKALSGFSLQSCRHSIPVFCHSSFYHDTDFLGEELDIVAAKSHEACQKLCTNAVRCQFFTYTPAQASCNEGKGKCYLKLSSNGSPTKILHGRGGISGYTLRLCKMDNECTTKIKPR
Coagulation factor XI (Homo sapiens), sequence (P03951 388-625 limits assumed): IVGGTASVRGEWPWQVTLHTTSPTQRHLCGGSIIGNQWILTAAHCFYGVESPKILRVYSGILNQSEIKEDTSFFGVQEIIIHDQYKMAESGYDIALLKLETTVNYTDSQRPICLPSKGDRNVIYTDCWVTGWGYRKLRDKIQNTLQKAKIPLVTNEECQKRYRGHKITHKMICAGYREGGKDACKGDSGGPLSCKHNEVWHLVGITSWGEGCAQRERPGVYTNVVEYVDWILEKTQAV

For the compound `Cc1cc(NC(=O)COC(=O)c2c(C)nn(Cc3ccccc3)c2C)no1`, the IC50 was > 50 µM (inactive).

With `COC(=O)C(Cc1c[nH]c2ccccc12)NC(C)=O` (stereo not given), the IC50 is 6.69 µM.

As for `Cc1ccc(NS(=O)(=O)c2ccc(OCC(=O)N3CCOCC3)cc2)cc1`, the IC50 was > 50 µM (inactive).

Regarding `CCOc1ccc(S(=O)(=O)NCc2ccc(OC)cc2)c2cccnc12`, the IC50 was > 50 µM (inactive).

`CCn1c(SCC(=O)c2[nH]c(C)c(C(C)=O)c2C)nnc1-c1ccccc1`: the IC50 is 7.44 µM.

For the compound `CCN(CC)CCNC(=O)C(C)c1nn(C)c(=O)c2ccccc12` (stereo not given), the IC50 is > 50 µM (inactive).

`O=C(NC(C(=O)c1ccccc1)n1c(=O)cc[nH]c1=S)c1ccccc1` (stereo not given): the IC50 is > 50 µM (inactive).

With `CCOC(=O)N=S(=O)(Oc1ccc([N+](=O)[O-])cc1)c1ccccc1` (stereo not given), the IC50 was > 50 µM (inactive).

`CCCC1CCc2c(sc(N)c2C(N)=O)C1` (stereo not given): the IC50 is > 50 µM (inactive).

For `COc1cc(OC)c2c(N)c(C#N)c(C(F)(F)C(F)(F)F)nc2c1`, the IC50 was > 50 µM (inactive).

For `O=c1c(-c2cc3ccccc3o2)[n+]([O-])c2ccccc2n1OCc1ccccn1`, the IC50 is > 50 µM (inactive).

On to `O=C(Oc1cccc(-n2cnnn2)c1)c1ccco1`, for which the IC50 was 4.06 µM.

With `O=C(CCSc1nnc2ccc3ccccc3n12)Nc1ccc(F)cc1`, the IC50 was > 50 µM (inactive).

On to `CCOc1cc(S(=O)(=O)N(Cc2ccccc2)Cc2ccccc2)c(OCC)cc1-n1cnnn1`, for which the IC50 is > 50 µM (inactive).

On to `CCOC(=O)c1c(C)nc2c(c1C)c(=O)oc1ccccc12`, for which the IC50 was > 50 µM (inactive).

`Cc1ccc(C(=O)n2nnc3ccccc32)cc1`: the IC50 was 2.39 µM.

For `O=c1cccc2n1CC1CC2CN(S(=O)(=O)c2ccccc2)C1` (stereo not given), the IC50 is > 50 µM (inactive).

As to `CC(C)c1nc2ccc(NC(=O)C3CCCCC3)cc2[nH]1`, the IC50 is > 50 µM (inactive).

With `COCCN=C1Sc2nc3c(C)cccc3cc2CN1Cc1ccco1`, the IC50 was 0.745 µM.

In the case of `O=C(c1ccc(F)cc1)N1CCN(C(=O)c2cccnc2)CC1`, the IC50 is > 50 µM (inactive).

With `CCOC(=O)c1cc2c(ccn2C)n1CC(=O)N1CCC(C)CC1`, the IC50 was 0.744 µM.

For `Cc1c(O)ccc(C(=O)CN2C(=O)c3ccccc3C2=O)c1O`, the IC50 is > 50 µM (inactive).

For `COc1ccc(Cn2nnnc2C(c2ccccc2Cl)N2CCC(C(N)=O)CC2)cc1` (stereo not given), the IC50 is > 50 µM (inactive).

Regarding `CN(CCOc1ccccc1)c1ccc(S(=O)(=O)N2CCCCC2)cn1`, the IC50 is > 50 µM (inactive).

In the case of `Cn1c(SCC(=O)NC2CCCCC2)nnc1-c1cccc(N)c1`, the IC50 is > 50 µM (inactive).

`CNC(=O)COC(=O)c1[nH]c(C)c(C(C)=O)c1C`: the IC50 was > 50 µM (inactive).

For the compound `O=C(Nc1ccccc1C(=O)N1CCOCC1)c1ccc(F)cc1`, the IC50 is 21.4 µM.

As to `C=CCn1c(=O)c2c(nc(Br)n2Cc2ccccc2Cl)n(C)c1=O`, the IC50 was 0.638 µM.

Regarding `CCCC(=O)n1nc(-c2ccccc2)nc1SC`, the IC50 is > 50 µM (inactive).

For the compound `COC(=O)c1sc(NC(=O)CC(C)C)c(C(=O)OC)c1C`, the IC50 is > 50 µM (inactive).

As to `COC(=O)CSc1nnc(C)n1-c1cccc(OC)c1`, the IC50 is 2.36 µM.

Consider `O=C(CCCN1C(=O)c2ccccc2C1=O)NCC1CCCO1` (stereo not given), for which the half-inhibitory concentration (IC50) is 14.6 µM.

As for `Cc1c(NC(=O)c2cc3ccccc3o2)c(=O)n(-c2ccccc2)n1C`, the IC50 was > 50 µM (inactive).

As for `COc1ccc(S(=O)(=O)N2CCC(C(=O)N3CCc4ccccc4C3)CC2)cc1Cl`, the IC50 was 6.26 µM.

In the case of `O=C(c1cccc2ccccc12)n1nnc2ccccc21`, the IC50 is > 50 µM (inactive).

`O=S(=O)(Cc1ccccc1)N1CCC(c2nc(-c3cccs3)no2)CC1`: the IC50 was > 50 µM (inactive).

As to `CCc1c(O)nc(SCC(=O)NC(C)(C)C)n(-c2ccccc2)c1=O`, the IC50 is > 50 µM (inactive).

Regarding `COc1cc(/C=c2\sc3n(c2=O)CCCN=3)ccc1O`, the IC50 was > 50 µM (inactive).

With `Cc1cnc(C(=O)OCC(=O)NCc2ccccc2)cn1`, the IC50 was > 50 µM (inactive).

Take `COC(=O)c1[nH]c2ccc(Br)cc2c1NC(=O)CN1CCCc2ccccc21`: the IC50 is > 50 µM (inactive).

On to `COc1ccc(OCCSc2ncn[nH]2)cc1`, for which the IC50 is > 50 µM (inactive).

For `CCC1(c2ccccc2)C(=O)N(C)C(=O)N(C)C1=O`, the IC50 was > 50 µM (inactive).

For the compound `N#Cc1cc2c(nc1SCC(=O)Nc1sc3c(c1C#N)CCC3)CCC2`, the IC50 was > 50 µM (inactive).

For the compound `COc1ccccc1-n1cnnc1SCC(=O)Nc1nc(C)c(Cl)cc1Cl`, the IC50 is 10.2 µM.

In the case of `Cc1ccccc1C(=O)N=c1sccn1C`, the IC50 is > 50 µM (inactive).

`Cc1cc(=O)[nH]c(-n2[nH]c(C)cc2=O)n1`: the IC50 was > 50 µM (inactive).

Consider `O=S(=O)(Nc1cccc2nsnc12)c1ccccc1`, for which the IC50 is 9.3 µM.

As for `Cc1cccc(NC(=O)c2snc3c(=O)[nH]cnc23)c1`, the IC50 is > 50 µM (inactive).

As for `O=C(NCc1ccccc1)C1CCCN(S(=O)(=O)c2cccc3nonc23)C1` (stereo not given), the IC50 was > 50 µM (inactive).

In the case of `Cc1ccc(N(C(=O)c2ccccn2)C2(C(=O)NC3CCCC3)CCCCC2)cc1`, the IC50 was > 50 µM (inactive).

Turning to `Cc1cc(C)n2nc(C(=O)Nc3ccc4c(c3)OCO4)cc2n1`, the IC50 is > 50 µM (inactive).

Consider `Cc1ccc(NC(=O)CCn2cccc2)cc1`, for which the IC50 is > 50 µM (inactive).

As for `N#Cc1ccc(NC(=O)COC(=O)CNC(=O)C2CCCCC2)cc1`, the IC50 was > 50 µM (inactive).

For `O=C(c1cn(-c2ccccc2)nc1-c1ccncc1)n1nnc2ccccc21`, the 50% inhibitory concentration (IC50) was 0.707 µM.

In the case of `CCOc1cccc2cc(C(N)=O)c(=NCc3ccccc3)oc12`, the IC50 is > 50 µM (inactive).

Consider `O=c1nc(-c2ccccc2)c2cc(Cl)ccc2[nH]1`, for which the IC50 is > 50 µM (inactive).

In the case of `COc1ccc2c(=O)cc(-c3ccccc3)n(C)c2c1`, the IC50 is > 50 µM (inactive).

As to `Cc1ccc(C(=O)n2nc(-c3cccnc3)nc2N)cc1`, the IC50 is > 50 µM (inactive).

As for `CCc1ccc(CC2S/C(=C(\C#N)C(C)=O)NC2=O)cc1` (stereo not given), the IC50 was > 50 µM (inactive).

Turning to `CCc1ccc(NC(=O)Cn2nc(C(F)(F)F)c3c2CCC3)cc1`, the IC50 was > 50 µM (inactive).

On to `CCCN(CCC)C(C(=O)Nc1cccc(OC)c1)c1ccccc1` (stereo not given), for which the IC50 is > 50 µM (inactive).

As to `CCOC(=O)c1c(C)n(Cc2ccccc2)c2ccc(OCC(O)Cn3nc(C)cc3C)cc12` (stereo not given), the IC50 was > 50 µM (inactive).

Consider `COc1ccc(CC(=O)NCc2ccc3c(c2)OCO3)cc1`, for which the IC50 is > 50 µM (inactive).

On to `COc1cc(OC)cc(-c2nnc(SCc3cccc(C(=O)O)c3)o2)c1`, for which the IC50 was > 50 µM (inactive).

Consider `COc1ccc(OCC(=O)Nc2cc(-c3nn(C)c(=O)c4ccccc34)ccc2OC)cc1`, for which the IC50 is > 50 µM (inactive).

`CNCCCc1ccccc1`: the IC50 is > 50 µM (inactive).

Consider `O=C(Oc1ccc2c(=O)c(Cl)coc2c1)c1cccnc1`, for which the IC50 was > 50 µM (inactive).

For the compound `CCC(CO)NCc1ccc(OC2CCCC2)cc1` (stereo not given), the IC50 is > 50 µM (inactive).

With `CCCc1nc2ccccc2c(=O)n1-c1ccc(OC)cc1`, the IC50 was > 50 µM (inactive).

Take `CCC1CC2CC(NC(C)=O)C1C2` (stereo not given): the IC50 is 0.588 µM.

Consider `OCCCn1c(-c2ccccc2)nc(=S)c2c1CCCC2`, for which the IC50 was > 50 µM (inactive).

On to `Cc1ccc(-c2csc(N3CCC(NS(=O)(=O)c4ccc5c(c4)OCCO5)CC3)n2)cc1`, for which the IC50 is > 50 µM (inactive).

Take `CCn1nc(CC(=O)Nc2nnc(CC(=O)N3CCCC3)s2)c2ccccc2c1=O`: the IC50 is > 50 µM (inactive).

For `Cn1nnnc1SCC(=O)N(C1CCCCC1)C1CCCCC1`, the IC50 was > 50 µM (inactive).

In the case of `COc1cccc(C(=O)N(Cc2ccccc2)Cc2cc3cc4c(cc3[nH]c2=O)OCCO4)c1`, the IC50 was 10.4 µM.
